From patent US12617818B2, “Compositions and methods for modulating myosin subfragment-2 coiled coil stability and methods for using them” (UNIVERSITY OF NORTH TEXAS, priority 2020, dated 2026)
Entries after “also recorded” stand apart in the source; their conditions may differ.

Assays:
[1] = target: T1, smooth muscle myosin S2 peptide (MYH11) (Homo sapiens, UniProt P35749); assay: GFS, uncoiling of smooth myosin S2 peptide dimer; assay type: biochemical; details: for impact on mechanical stability of smooth muscle myosin S2 peptide: force distance curve vs control; for Force required to uncoil S2 molecule: length 10 nm, in presence of the anti-S2 peptide, ± SEM
T1 construct: host or cells: chemical synthesis
T1 sequence (P35749 with tags, fused parts or gaps): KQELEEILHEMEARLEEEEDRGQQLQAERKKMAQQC
From the text: (§1) 3-aminopropyltriethoxysilane, acetone, coupling buffer (0.01 M pyridine in water with pH 6.0), 5% glutaraldehyde, quenching solution (1 M glycine in water with pH 7.0), blocking buffer (0.01 M Tris, 0.1% sodium azide, 0.1% bovine serum albumin, 0.15 M sodium chloride, and 0.001 M ethylenediaminetetraacetic acid with pH 7.0), wash buffer (0.01 M Tris, 0.1% sodium azide, 0.15 M sodium chloride, and 0.001 M ethylenediaminetetraacetic acid with pH 7.0) low salt buffer (0.1 M potassium chloride, 0.02 M imidazole, 5 mM magnesium chloride, with pH 7.0), 1-ethyl-3-(3-dimethyaminopropyl) carbodiimide, N-hydroxysuccinamide, iodoacetamide-succinimidyl ester, 8M urea solution (50 mM imidazole and 0.1 mM tris (2-carboxyethyl) phosphine with pH 7.0) monodisperse silica beads, glass slides, glass coverslips, vacuum grease, rabbit skeletal myosin, purified actin (G-actin), 1 μM human β-cardiac myosin S2 peptide, 1 μM human β-cardiac mutants myosin S2 peptide (E930del and E924K), 1 μM human skeletal myosin S2 peptide, 1 μM human smooth myosin S2 peptide, stabilizer peptide, and destabilizer peptide. A light microscope with an objective lens of 10× was mounted on an alt-azimuthal mount. A digital video camera of Sony, XCD-V60 was replaced with the ocular lenses. Extension springs on steel bracket held the alt-azimuthal mount suspended.
Gravitational force spectroscopy (GFS), is a single molecule force spectroscopy that utilizes gravitational force to measure absolute length of a single molecule at the given force calculated by the density of the bead suspending the molecule. This technique was discovered and developed in Root lab, which measures the forces in piconewton and sub-piconewton levels. Other than absolute length of a molecule, GFS measures force range required to uncoil, stretch or extend the molecule yielding a force-distance profile for the suspended molecule. Besides that, based on the force-distance profile, number of amino acids within the molecule can be calculated. […] The GFS allowed to test the flexibility or stability of a single molecule of myosin S2 peptide and also for the S2 peptides treated with anti-S2 peptides. Flexibility of myosin S2 is not dependent on assembly myosin as a thick filament or myosin in its single molecule form. […]
Free fall mode, another measurement variant of GFS which allows the user to get a force distance profile on a single molecule experiencing the gravitational force. […] During the free fall mode, GFS has a single molecule which is suspended within an immobile edge and mobile bead will now experience the variable force which would be calculated by the product of mass of the bead and the acceleration of the GFS. […]

[2] = target: skeletal muscle myosin S2 peptide (MYH2) (Homo sapiens, UniProt Q9UKX2); assay: GFS, uncoiling of skeletal myosin S2 peptide dimer; assay type: biochemical; design: host or cells: chemical synthesis; details: for Force required to uncoil S2 molecule: length 10 nm, in presence of the anti-S2 peptide, ± SEM
skeletal muscle myosin S2 peptide (MYH2), sequence (Q9UKX2 918-953 limits assumed): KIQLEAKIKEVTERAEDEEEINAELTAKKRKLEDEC
From the text: as §1
Gravitational force spectroscopy (GFS), is a single molecule force spectroscopy that utilizes gravitational force to measure absolute length of a single molecule at the given force calculated by the density of the bead suspending the molecule. This technique was discovered and developed in Root lab, which measures the forces in piconewton and sub-piconewton levels. Other than absolute length of a molecule, GFS measures force range required to uncoil, stretch or extend the molecule yielding a force-distance profile for the suspended molecule. Besides that, based on the force-distance profile, number of amino acids within the molecule can be calculated. […] The GFS allowed to test the flexibility or stability of a single molecule of myosin S2 peptide and also for the S2 peptides treated with anti-S2 peptides. Flexibility of myosin S2 is not dependent on assembly myosin as a thick filament or myosin in its single molecule form. The flexibility of myosin S2 region was reported to be similar in single molecule form or myosin in a thick filament assembly thus it could be conceived that the changes seen on flexibility of myosin S2 in presence of anti-S2 peptides would correlate to changes in myosin S2 flexibility for myosin in a thick filament form (Singh et al., 2018). The schematic diagram of GFS is shown below (schematic diagrams of GFS which has two modes: (FIG. 15) free-fall mode, (FIG. 16) rotational mode.
Free fall mode, another measurement variant of GFS which allows the user to get a force distance profile on a single molecule experiencing the gravitational force. Free fall mode allows a variable force by the virtue of gravity to be exerted on a single molecule. The GFS setup, light microscope with mounted camera on spring on alt-azimuthal platform, can be dropped. The start of free-fall mode force applied to the bead is zero or close to zero. […] As the platform goes towards equilibrium, trace of the acceleration decays. During the free fall mode, GFS has a single molecule which is suspended within an immobile edge and mobile bead will now experience the variable force which would be calculated by the product of mass of the bead and the acceleration of the GFS.
The product of the GFS acceleration and the mass of the bead will provide a force trace for the single molecule tethered between the immobile edge and mobile bead. The image processing would provide distance trace for the single molecule experiencing the free fall by the GFS. When this force trace is aligned with distance trace will yield the extension or the stretch experience by the single molecule under variable forces. […]

SMILES	impact on mechanical stability of smooth muscle myosin S2 peptide [1]	Force required to uncoil S2 molecule [1]	Force required to uncoil S2 molecule [2]	increase of force required to uncoil the coiled coil ([2]; vs absence of anti-S2 peptide)	Force required to uncoil S2 molecule ([2]; listed as destabilizer peptide)	decrease of force required to uncoil the coiled coil ([2]; vs absence of anti-S2 peptide)
C[C@H](NC(=O)[C@H](CCCCN)NC(=O)[C@H](Cc1ccccc1)NC(=O)[C@H](CCCCN)NC(=O)[C@H](CCCCN)NC(=O)[C@H](CCCCN)NC(=O)[C@H](CCCCN)NC(=O)[C@H](CCCCN)NC(=O)[C@H](CCCCN)NC(=O)[C@H](CCCCN)NC(=O)[C@@H](N)CCCCN)C(=O)N[C@@H](CCCCN)C(=O)N[C@@H](CCCCN)C(=O)N[C@@H](CCCCN)C(=O)N[C@@H](CCCCN)C(=O)N[C@@H](CCCCN)C(=O)N[C@@H](CCCCN)C(=O)O [Stabilizer]	do not have an impact; also recorded: no effect	4.96E−01 ± 7.60E−02 pN	6.28E−01 ± 4.32E−02 pN	1.40 times		
CSCC[C@H](NC(=O)[C@H](CCC(=O)O)NC(=O)[C@H](CCCNC(=N)N)NC(=O)[C@H](CCC(=O)O)NC(=O)[C@H](CC(=O)O)NC(=O)[C@H](CCC(=O)O)NC(=O)[C@H](CC(C)C)NC(=O)[C@H](CCCNC(=N)N)NC(=O)[C@H](CCC(=O)O)NC(=O)[C@H](CC(N)=O)NC(=O)[C@H](CCSC)NC(=O)[C@@H](N)CCC(=O)O)C(=O)N[C@@H](CCCCN)C(=O)N[C@@H](C)C(=O)N[C@@H](CCC(=O)O)C(=O)N[C@@H](CC(C)C)C(=O)N[C@H](C(=O)N[C@@H](C)C(=O)N[C@@H](CCCCN)C(=O)O)[C@@H](C)O [Destabilizer]	do not have an impact	4.51E−01 ± 2.98E−02 pN	1.84E−01 ± 4.00E−02 pN		1.84×10^−1±4.00×10^−2 pN	2.45 times
